Data reported in patent US10273208B2, “Screening methods for the binding affinity of chemical entities to biological molecules and NEDD4-1 inhibitors identified by the screening methods” (Northwestern University, priority 2014, dated 2019).

How the values were obtained:
[1] = target: T1, NEDD4-1 HECT domain (Homo sapiens, UniProt P46934); test: In vitro ubiquitination assays; type: biochemical; settings: NEDD4-1 HECT pretreated with 1 mM compound for 3 h, quenched after 5 min
T1 construct: to elute NEDD4-1 HECT domain (50 mM HEPES, 150 mM NaCl, 0.1 mM EDTA 1 mM DTT); GST (N, cleaved yes); made in house; host or cells: E. coli BL21
T1 sequence (P46934 with tags, fused parts or gaps): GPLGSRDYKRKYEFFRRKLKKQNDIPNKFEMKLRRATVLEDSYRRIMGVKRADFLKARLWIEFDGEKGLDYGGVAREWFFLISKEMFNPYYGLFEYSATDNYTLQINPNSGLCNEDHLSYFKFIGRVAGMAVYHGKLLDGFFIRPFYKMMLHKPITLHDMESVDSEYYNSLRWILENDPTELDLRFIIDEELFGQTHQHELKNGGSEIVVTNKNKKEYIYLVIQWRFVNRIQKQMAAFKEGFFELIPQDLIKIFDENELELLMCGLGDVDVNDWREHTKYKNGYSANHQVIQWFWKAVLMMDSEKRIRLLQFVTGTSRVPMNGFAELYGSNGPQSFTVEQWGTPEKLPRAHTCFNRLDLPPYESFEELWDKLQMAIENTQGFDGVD
Protocol: FIG. 15A, FIG. 15B and FIG. 15C. (FIG. 15A) Enzymatic assay with compounds 1, 2, and 4. NEDD4-1 HECT domain was pretreated with 1% DMSO (lane 1), or 1 mM of compounds 1 (lane 2), 2 (lane 3), or 4 (lane 4) for 3 h before beginning the assay. The reaction mixtures were quenched after 5 min, and polyubiquitin chains were detected by Western blot with anti-ubiquitin antibody. (FIG. 15B) Cartoon depiction of the crystal structure of NEDD4-1:1 with key side chains and the inhibitor shown as spheres. (FIG. 15C) Close-up view of the inhibitor-binding site with the key side chains depicted as sticks and colored by atom type. The 2FO-FC electron density map (mesh, contoured at 1.0 σ) is presented for Cys^627 and 1.
FIG. 16A, FIG. 16B, FIG. 16C and FIG. 16D. (FIG. 16A) and (FIG. 16B) Compound 6 disrupts the NEDD4-1:Ub interaction as shown by a fluorescence polarization assay. Mean±s.e.m., n=3. (FIG. 16C) Compound 6 inhibits the ability of NEDD4-1 to polyubiquitinate the Wbp2-C-K222 protein substrate. NEDD4-1 was pretreated with 1% DMSO (lane 1), or 100 μM of compound 6 (lane 2) or compound 4 (lane 3) for 1.5 h before beginning the assay. Reaction mixtures were quenched at the indicated times and the amount of ubiquitinated Wbp2-C-K222 was determined using in-gel fluorescence. (FIG. 16D) Quantification of polyubiquitin chains in FIG. 16B. Mean±s.e.m., n=2. […]

[2] = target: T2, papain (Carica papaya, UniProt P00784); test: Papain activity assay (Cbz-Gly-ONp, kinact/KI); type: biochemical
T2 construct: purchased Sigma P4762
T2 sequence (P00784 134-345): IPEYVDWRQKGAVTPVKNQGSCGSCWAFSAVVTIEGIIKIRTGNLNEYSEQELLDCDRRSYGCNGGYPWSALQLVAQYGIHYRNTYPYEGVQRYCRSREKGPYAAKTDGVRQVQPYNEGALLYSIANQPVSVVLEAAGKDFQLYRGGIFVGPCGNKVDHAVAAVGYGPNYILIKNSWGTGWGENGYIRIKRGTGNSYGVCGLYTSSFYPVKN
Protocol: We subsequently tested compounds 6-8 in an enzymatic assay to confirm that they inhibited papain in the concentration and time dependent manner that is characteristic of irreversible inhibitors.^18 Using assay conditions previously described for papain,^17 we determined kinact/K1 values for compounds 6-8 (FIGS. 4 and 10).
Papain (4.8 μM) in 50 mM Na3PO4 2 mM EDTA was preactivated with 1 mM DTT for 30 min. Activated papain (3.84 μM) in 4:1 mixture of 50 mM Na3PO4, 2 mM EDTA at pH 6.2 and acetronitrile was then preincubated for 1 h with varying concentrations of the electrophilic fragment. Every 10 min, 10 μL of the reaction mixture was added to a well of 96-well plate containing 100 μL of 4:1 50 mM Na3PO4 2 mM EDTA pH 6.2:acetronitrile with 400 μM Cbz-Gly-ONp. p-Nitrophenol product formation was monitored by absorbance at 340 nm (£: 6800 M-1 cm-1) with a Biotek Synergy 4 plate reader. All reactions were performed in duplicate. Product concentration versus time was plotted with GraphPad Prism software and the initial slope was calculated to determine enzymatic activity (E). The values of kinact/KI for each inhibitor were then determined according to the method of Kitz and Wilson.23 Briefly, the slopes of the plots of ln(100*Einhibited/Euninhibited) vs. time were used to determine the pseudo-first order inhibition constant kobs for a given concentration of a given inhibitor. […]

[3] = NMR rate studies: pseudo-first order reaction with N-acetylcysteine methyl ester; type: physicochemical; settings: electrophile 10 mM, N-acetyl cysteine methyl ester 78 mM, 2:1 deuterated PBS:DMSO-d6, pD 8, NMR
Description: We further validated the utility of electrophile 3 as a thiol-reactive tether by making a library of one hundred structurally diverse drug-like fragments 6-105 containing this electrophile. The library was constructed with an HBTU amide coupling with commercially available carboxylic acid fragments (FIG. 2A). The acids were selected with “rule of three” criteria^15 and a subsequent diversity analysis. We measured the reaction rates for the first fifty fragments to confirm that this library would have balanced cysteine reactivity and could be used for irreversible tethering (FIG. 2B).
N-Acetyl cysteine methyl ester was dissolved in 2:1 deuterated PBS:DMSO-d6 (78 mM) with 10 mM CH2Cl2 as an internal standard. The electrophile (10 mM) was then added immediately prior to acquiring spectra. H1 spectra were taken every 30 s for 30 min (or every 4 s for 5 min for highly reactive compounds 1c and 2a-c). The integrals of the vinyl peaks were used to determine the concentration of the electrophile over time. The natural logarithm of the concentration of the electrophile versus time was then plotted using GraphPad Prism software. The linear slope of this plot was used to determine the pseudofirst order rate constant. Deuterated PBS recipe: 20 mM Na3PO4, 50 mM NaCl in D2O was adjusted to pD 8 with DC1 solution.

[4] = target: T2, papain; test: Irreversible tethering screening assay (whole protein ESI-MS) against papain; type: binding
Protocol: Papain (10 μM) was incubated for one hour with ten reaction mixtures that each contained ten electrophilic fragments (100 μM each) (Table S2).
Hits were defined as any compounds which labeled papain more than 50%. […] Such selectivity is impressive, given a 9-fold excess of other cysteine reactive electrophiles over compounds 6, 7, and 8. […] This is despite the fact that these reaction mixtures contain a 100-fold excess of cysteine reactive electrophiles relative to the highly reactive catalytic cysteine of papain. […]
10 μM of papain (Sigma P4762), UbcH7 (recombinantly expressed) or USPO8 (recombinantly expressed) in 50 mM HEPES 150 mM NaCl 0.1 mM EDTA pH 7.5 was treated with a mixture of ten fragments (Table S2) (10 mM DMSO stock solutions, final concentrations: 100 μM of each fragment, and 1% DMSO). […] The protein solution was then immediately analyzed by whole protein LC/ESI-MS. […]
200 μL of papain and compound 6-8 adducts were prepared separately as described above in “irreversible tethering screening assay” by incubating papain (10 μM) with 100 μM of compounds 6-8 in 1% DMSO 50 mM HEPES 150 mM NaCl 0.1 mM EDTA pH 7.5. […] The cassettes were dialyzed against 500 mL of 50 mM HEPES 150 Mm NaCl 0.1 mM EDTA pH 7.5 for 16 h, then 20 μL were extracted and analyzed by ESI-MS. […]

[5] = target: T3, human rhinovirus 3C protease (GST-HRV3C, PreScission protease) (Human rhinovirus 14, UniProt P03303); test: Irreversible tethering counter-screen (ESI-MS) against HRV3C protease; type: binding; settings: mixtures of ten fragments 100 μM each, 1 h
T3 construct: made in house; host or cells: E. coli Rosetta (DE3)pLysS
T3 sequence (P03303 1538-1719, added parts left off): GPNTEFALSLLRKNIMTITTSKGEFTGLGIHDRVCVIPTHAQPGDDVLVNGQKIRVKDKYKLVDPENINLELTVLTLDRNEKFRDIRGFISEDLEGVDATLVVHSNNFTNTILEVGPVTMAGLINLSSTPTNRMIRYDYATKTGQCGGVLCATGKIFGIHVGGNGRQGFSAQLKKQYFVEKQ
Protocol: FIG. 28A, FIG. 28B, FIG. 28C and FIG. 28D. Counterscreen of compound 6 against the deubiquitinase USPO8 and Human Rhinovirus (HRV) 3C protease, both of which have catalytic cysteines. Compound 6 at 100 μM in 1% DMSO was incubated with the catalytic domain of the indicated cysteine protease (10 μM) for 1 h, followed by gel filtration and whole protein ESI-MS.
To further test the specificity of the developed irreversible tethering system, we conducted a counter-screen of the same set of 100 compounds (10 mixtures of 10 compounds each) against three other enzymes: human rhinovirus 3C protease, the deubiquitinase USP08, and the E2 ubiquitin-conjugating enzyme UbcH7. […] The molecular weight of GST-HRV3C protease is 47566.72 Da and its amino acid sequence is provided as (SEQ ID NO:2).
10 μM of papain (Sigma P4762), UbcH7 (recombinantly expressed) or USPO8 (recombinantly expressed) in 50 mM HEPES 150 mM NaCl 0.1 mM EDTA pH 7.5 was treated with a mixture of ten fragments (Table S2) (10 mM DMSO stock solutions, final concentrations: 100 μM of each fragment, and 1% DMSO). The reaction mixture was incubated for 1 h or 4 h at 23° C. before being passed through Zeba gel filtration columns (Thermo, 7K MWCO) to remove unreacted fragments. The protein solution was then immediately analyzed by whole protein LC/ESI-MS.
Accurate-mass data were obtained on an Agilent 6210A LC-TOF mass spectrometer in positive ion mode using electrospray ionization. Samples were chromatographed on the LC-TOF instrument using a Poroshell 120 EC-C18 HPLC column (2.1*50 mm, 2.7 micron), an Agilent Series 1200 HPLC binary pump, and an Agilent Series 1200 autoinjector. The HPLC column was held at 45° C. and the autosampler was held at 8° C. Mobile Phase A was a solution of 0.1% formic acid in water:acetonitrile (19:1). Mobile Phase B was a solution of 0.1% formic acid in acetonitrile. The flow rate was set to 250 μL/min. The gradient used was 0% B for 2 minutes, ramping linearly to 90% B from 2 minutes to 5 minutes, holding at 90% B from 5 minutes to 7 minutes, and then returning to 0% B at 7.1 minutes. […]

Row | SMILES | k pseudo-first order [3] [s⁻¹] | labeling of HRV3C protease [5] [%] | other results
1 | COC(=O)/C=C/CNC(=O)c1c[nH]nc1-c1cccc(F)c1 [Compound 4, Methyl(E)-4-(3-(3-fluorophenyl)-1H-pyrazole-4-carboxamido)but-2-enoate] | – | – | polyubiquitin chain assembly by NEDD4-1 (anti-ubiquitin Western blot) [1]: did not affect NEDD4-1 activity
2 | COC(=O)/C=C/CNC(=O)c1ccc(C2CCCO2)s1 (stereo not shown) [Compound 19] | 0.0004396 | – | fold less potent at inhibiting papain than the least potent inhibitor 6 [2]: ~10 fold; fold less potent at inhibiting papain than the most potent inhibitor 7 [2]: ~33 fold; covalent labeling of papain ([4]; papain 10 μM, mixtures of ten fragments 100 μM each, 1 h, hit = labeled papain more than 50%): did not label papain
3 | COC(=O)/C=C/CNC(=O)c1csc(-c2cccs2)n1 [Compound 22] | 0.0007605 | ~35 | –
4 | COC(=O)/C=C/CNC(=O)c1ccc2ccccc2n1 [Compound 32] | 0.0006296 | ~20 | –
5 | COC(=O)/C=C/CNC(=O)[C@H](Cc1ccccc1)NC(C)=O [Compound 106, reference compound] | – | – | effect of pretreatment of papain on subsequent labeling by compounds 6-8 ([4]; 100 μM 106 for 1 h, then 100 μM of 6, 7 or 8): blocked subsequent labeling by compounds 6-8
